Laboratory results reported in PMC7034945 (RSC Advances, 2019).

Tested on: HIV-1 NL4-3 virus
Experiment: Anti-HIV-1 activity, multicycle assay with HIV-1 NL4-3 in TZM-bl cells
Format: cell-based
Conditions: for EC50: Human immunodeficiency virus 1, NL43, TZM-bl; for SI (selectivity index, ratio of CC50/EC50) / anti-HIV-1 activity (in words): TZM-bl cells; for anti-HIV-1 activity (in words): at the test concentration

Row | Compound | EC50 | SI (selectivity index, ratio of CC50/EC50) (Table 1) | anti-HIV-1 activity (in words) | SI (selectivity index, ratio of CC50/EC50) (Table 2)
1 | COc1ccc(N(C)C(=O)[C@H](Cc2cc(F)cc(F)c2)NC(=O)c2cn(Cc3ccccc3C)nn2)cc1 [I-8a, (S)-N-(3-(3,5-Difluorophenyl)-1-((4-methoxyphenyl)(methyl)amino)-1-oxopropan-2-yl)-1-(2-methylbenzyl)-1H-1,2,3-triazole-4-carboxamide] | 8.85 ± 2.69 µM | >2.18 | – | –
2 | COc1ccc(N(C)C(=O)[C@H](Cc2cc(F)cc(F)c2)NC(=O)c2cn(Cc3cccc(C)c3)nn2)cc1 [I-8b, (S)-N-(3-(3,5-Difluorophenyl)-1-((4-methoxyphenyl)(methyl)amino)-1-oxopropan-2-yl)-1-(3-methylbenzyl)-1H-1,2,3-triazole-4-carboxamide] | 9.43 ± 2.31 µM | >2.04 | – | –
3 | COc1ccc(N(C)C(=O)[C@H](Cc2cc(F)cc(F)c2)NC(=O)c2cn(Cc3ccc(C)cc3)nn2)cc1 [I-8c, (S)-N-(3-(3,5-Difluorophenyl)-1-((4-methoxyphenyl)(methyl)amino)-1-oxopropan-2-yl)-1-(4-methylbenzyl)-1H-1,2,3-triazole-4-carboxamide] | 10.6 ± 3.46 µM | >1.82 | – | –
4 | COc1ccc(N(C)C(=O)[C@H](Cc2cc(F)cc(F)c2)NC(=O)c2cn(Cc3ccccc3Cl)nn2)cc1 [I-8d, (S)-1-(2-Chlorobenzyl)-N-(3-(3,5-difluorophenyl)-1-((4-methoxyphenyl)(methyl)amino)-1-oxopropan-2-yl)-1H-1,2,3-triazole-4-carboxamide] | 9.63 ± 2.04 µM | >1.92 | – | –
5 | COc1ccc(N(C)C(=O)[C@H](Cc2cc(F)cc(F)c2)NC(=O)c2cn(Cc3cccc(Cl)c3)nn2)cc1 [I-8e, (S)-1-(3-Chlorobenzyl)-N-(3-(3,5-difluorophenyl)-1-((4-methoxyphenyl)(methyl)amino)-1-oxopropan-2-yl)-1H-1,2,3-triazole-4-carboxamide] | 8.33 ± 1.41 µM | >2.22 | – | –
6 | COc1ccc(N(C)C(=O)[C@H](Cc2cc(F)cc(F)c2)NC(=O)c2cn(Cc3ccc(Cl)cc3)nn2)cc1 [I-8f, (S)-1-(4-chlorobenzyl)-N-(3-(3,5-difluorophenyl)-1-((4-methoxyphenyl)(methyl)amino)-1-oxopropan-2-yl)-1H-1,2,3-triazole-4-carboxamide] | 8.7 ± 1.65 µM | >2.13 | – | –
7 | COc1ccc(N(C)C(=O)[C@H](Cc2cc(F)cc(F)c2)NC(=O)c2cn(Cc3ccccc3C#N)nn2)cc1 [I-8g, (S)-1-(2-Cyanobenzyl)-N-(3-(3,5-difluorophenyl)-1-((4-methoxyphenyl)(methyl)amino)-1-oxopropan-2-yl)-1H-1,2,3-triazole-4-carboxamide] | 9.61 ± 2.07 µM | >1.96 | – | –
8 | COc1ccc(N(C)C(=O)[C@H](Cc2cc(F)cc(F)c2)NC(=O)c2cn(Cc3cccc(C#N)c3)nn2)cc1 [I-8h, (S)-1-(3-Cyanobenzyl)-N-(3-(3,5-difluorophenyl)-1-((4-methoxyphenyl)(methyl)amino)-1-oxopropan-2-yl)-1H-1,2,3-triazole-4-carboxamide] | 3.58 ± 0.64 µM | >5.27 | – | –
9 | COc1ccc(N(C)C(=O)[C@H](Cc2cc(F)cc(F)c2)NC(=O)c2cn(Cc3ccc(C#N)cc3)nn2)cc1 [I-8i, (S)-1-(4-Cyanobenzyl)-N-(3-(3,5-difluorophenyl)-1-((4-methoxyphenyl)(methyl)amino)-1-oxopropan-2-yl)-1H-1,2,3-triazole-4-carboxamide] | 5.84 ± 1.53 µM | >3.23 | – | –
10 | COc1ccc(N(C)C(=O)[C@H](Cc2cc(F)cc(F)c2)NC(=O)c2cn(Cc3ccccc3[N+](=O)[O-])nn2)cc1 [I-8j, (S)-N-(3-(3,5-Difluorophenyl)-1-((4-methoxyphenyl)(methyl)amino)-1-oxopropan-2-yl)-1-(2-nitrobenzyl)-1H-1,2,3-triazole-4-carboxamide] | 3.27 ± 0.78 µM | >5.55 | – | –
11 | COc1ccc(N(C)C(=O)[C@H](Cc2cc(F)cc(F)c2)NC(=O)c2cn(Cc3cccc([N+](=O)[O-])c3)nn2)cc1 [I-8k, (S)-N-(3-(3,5-Difluorophenyl)-1-((4-methoxyphenyl)(methyl)amino)-1-oxopropan-2-yl)-1-(3-nitrobenzyl)-1H-1,2,3-triazole-4-carboxamide] | 10 ± 1.76 µM | – | – | –
12 | COc1ccc(N(C)C(=O)[C@H](Cc2cc(F)cc(F)c2)NC(=O)c2cn(Cc3ccc([N+](=O)[O-])cc3)nn2)cc1 [I-8l, (S)-N-(3-(3,5-Difluorophenyl)-1-((4-methoxyphenyl)(methyl)amino)-1-oxopropan-2-yl)-1-(4-nitrobenzyl)-1H-1,2,3-triazole-4-carboxamide] | 9.26 ± 2.54 µM | >1.96 | – | –
13 | COc1ccc(N(C)C(=O)[C@H](Cc2cc(F)cc(F)c2)NC(=O)c2cn(Cc3cccc4ccccc34)nn2)cc1 [I-8m, (S)-N-(3-(3,5-Difluorophenyl)-1-((4-methoxyphenyl)(methyl)amino)-1-oxopropan-2-yl)-1-(naphthalen-1-ylmethyl)-1H-1,2,3-triazole-4-carboxamide] | 14.8 ± 3.24 µM | >1.22 | – | –
14 | COc1ccc(N(C)C(=O)[C@H](Cc2cc(F)cc(F)c2)NC(=O)c2cn(Cc3ccc4ccccc4c3)nn2)cc1 [I-8n, (S)-N-(3-(3,5-Difluorophenyl)-1-((4-methoxyphenyl)(methyl)amino)-1-oxopropan-2-yl)-1-(naphthalen-2-ylmethyl)-1H-1,2,3-triazole-4-carboxamide] | 14.6 ± 2.34 µM | >1.23 | – | –
15 | COc1ccc(N(C)C(=O)[C@H](Cc2cc(F)cc(F)c2)NC(=O)c2cn(-c3ccc4c(c3)OCO4)nn2)cc1 [I-8q, (S)-1-(Benzo[d][1,3]dioxol-5-yl)-N-(3-(3,5-difluorophenyl)-1-((4-methoxyphenyl)(methyl)amino)-1-oxopropan-2-yl)-1H-1,2,3-triazole-4-carboxamide] | 9.15 ± 2.8 µM | >2.04 | – | –
16 | COc1ccc(N(C)C(=O)[C@H](Cc2cc(F)cc(F)c2)NC(=O)c2cn(Cc3ccc(S(N)(=O)=O)cc3)nn2)cc1 [I-8r, (S)-N-(3-(3,5-Difluorophenyl)-1-((4-methoxyphenyl)(methyl)amino)-1-oxopropan-2-yl)-1-(4-sulfamoylbenzyl)-1H-1,2,3-triazole-4-carboxamide] | 12.3 ± 2.39 µM | >1.39 | – | –
17 | COc1ccc(N(C)C(=O)[C@H](Cc2cc(F)cc(F)c2)NC(=O)c2cn(Cc3ccc(C(N)=O)cc3)nn2)cc1 [I-8s, (S)-1-(4-Carbamoylbenzyl)-N-(3-(3,5-difluorophenyl)-1-((4-methoxyphenyl)(methyl)amino)-1-oxopropan-2-yl)-1H-1,2,3-triazole-4-carboxamide] | 11.1 ± 2 µM | >1.64 | – | –
18 | COc1ccc(N(C)C(=O)[C@H](Cc2cc(F)cc(F)c2)NC(=O)c2cn(CS(=O)(=O)c3ccccc3)nn2)cc1 [I-8t, (S)-N-(3-(3,5-Difluorophenyl)-1-((4-methoxyphenyl)(methyl)amino)-1-oxopropan-2-yl)-1-((phenylsulfonyl)methyl)-1H-1,2,3-triazole-4-carboxamide] | 4.21 ± 0.9 µM | >4.17 | – | –
19 | COc1ccc(N(C)C(=O)[C@H](Cc2cc(F)cc(F)c2)NC(=O)c2cccc(-c3cn(Cc4ccccc4[N+](=O)[O-])nn3)c2)cc1 [II-10a, (S)-N-(3-(3,5-Difluorophenyl)-1-((4-methoxyphenyl)(methyl)amino)-1-oxopropan-2-yl)-3-(1-(2-nitrobenzyl)-1H-1,2,3-triazol-4-yl)benzamide] | > 35.5 µM | – | – | –
20 | COc1ccc(N(C)C(=O)[C@H](Cc2cc(F)cc(F)c2)NC(=O)c2cccc(-c3cn(Cc4cccc([N+](=O)[O-])c4)nn3)c2)cc1 [II-10b, (S)-N-(3-(3,5-Difluorophenyl)-1-((4-methoxyphenyl)(methyl)amino)-1-oxopropan-2-yl)-3-(1-(3-nitrobenzyl)-1H-1,2,3-triazol-4-yl)benzamide] | > 35.5 µM | – | – | –
21 | COc1ccc(N(C)C(=O)[C@H](Cc2cc(F)cc(F)c2)NC(=O)c2cccc(-c3cn(Cc4ccc(C(N)=O)cc4)nn3)c2)cc1 [II-10d, (S)-3-(1-(4-Carbamoylbenzyl)-1H-1,2,3-triazol-4-yl)-N-(3-(3,5-difluorophenyl)-1-((4-methoxyphenyl)(methyl)amino)-1-oxopropan-2-yl)benzamide] | 23.4 ± 6.88 µM | – | exhibited anti-HIV-1 activity at the test concentration | >1.37
22 | COc1ccc(N(C)C(=O)[C@H](Cc2cc(F)cc(F)c2)NC(=O)c2cccc(-c3cn(CC(=O)Nc4ccccc4)nn3)c2)cc1 [II-10e, (S)-N-(3-(3,5-Difluorophenyl)-1-((4-methoxyphenyl)(methyl)amino)-1-oxopropan-2-yl)-3-(1-(2-oxo-2-(phenylamino)ethyl)-1H-1,2,3-triazol-4-yl)benzamide] | 8.16 ± 2.56 µM | – | exhibited anti-HIV-1 activity at the test concentration | >3.92
23 | COc1ccc(N(C)C(=O)[C@H](Cc2cc(F)cc(F)c2)NC(=O)c2cccc(-c3cn(Cc4ccc(S(N)(=O)=O)cc4)nn3)c2)cc1 [II-10f, (S)-N-(3-(3,5-Difluorophenyl)-1-((4-methoxyphenyl)(methyl)amino)-1-oxopropan-2-yl)-3-(1-(4-sulfamoylbenzyl)-1H-1,2,3-triazol-4-yl)benzamide] | > 30.3 µM | – | – | –
24 | COc1ccc(N(C)C(=O)[C@H](Cc2cc(F)cc(F)c2)NC(=O)c2cccc(-c3cn(CCCc4ccccc4)nn3)c2)cc1 [II-10g, (S)-N-(3-(3,5-Difluorophenyl)-1-((4-methoxyphenyl)(methyl)amino)-1-oxopropan-2-yl)-3-(1-(3-phenylpropyl)-1H-1,2,3-triazol-4-yl)benzamide] | > 32.8 µM | – | – | –
25 | COc1ccc(N(C)C(=O)[C@H](Cc2cc(F)cc(F)c2)NC(=O)c2cccc(-c3cn(CCc4ccsc4)nn3)c2)cc1 [II-10h, (S)-N-(3-(3,5-Difluorophenyl)-1-((4-methoxyphenyl)(methyl)amino)-1-oxopropan-2-yl)-3-(1-(2-(thiophen-3-yl)ethyl)-1H-1,2,3-triazol-4-yl)benzamide] | 7.48 ± 2.83 µM | – | exhibited anti-HIV-1 activity at the test concentration | >4.44
